For two compounds, IC50 and Kd results are on record in article PMC10213791 (Acta Pharmaceutica Sinica. B, 2022).

Assay [1] deals with EIF2AK2 (Homo sapiens, UniProt P19525). The assay is described as follows: biochemical.
Assay [2] concerns the target T1, eukaryotic translation elongation factor 1 alpha 1 (eEF1A1) (Homo sapiens, UniProt P68104).
T1 sequence (P68104 2-462): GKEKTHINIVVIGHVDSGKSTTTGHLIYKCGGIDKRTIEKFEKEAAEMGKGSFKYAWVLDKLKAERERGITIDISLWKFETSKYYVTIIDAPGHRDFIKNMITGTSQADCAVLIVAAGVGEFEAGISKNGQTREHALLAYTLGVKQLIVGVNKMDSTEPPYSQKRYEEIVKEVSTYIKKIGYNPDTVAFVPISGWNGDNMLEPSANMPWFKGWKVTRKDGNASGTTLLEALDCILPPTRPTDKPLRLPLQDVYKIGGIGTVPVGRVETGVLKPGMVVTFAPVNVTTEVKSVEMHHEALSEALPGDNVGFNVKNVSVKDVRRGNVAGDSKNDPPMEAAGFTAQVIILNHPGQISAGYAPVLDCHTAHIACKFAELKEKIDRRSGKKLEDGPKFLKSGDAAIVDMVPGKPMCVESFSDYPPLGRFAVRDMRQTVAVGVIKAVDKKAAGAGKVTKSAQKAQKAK
Description: SPR. Format: binding.

Assay [3] deals with T2, vacuolar protein sorting 4 homolog B (VPS4B) (Homo sapiens, UniProt O75351).
T2 sequence (O75351 1-444): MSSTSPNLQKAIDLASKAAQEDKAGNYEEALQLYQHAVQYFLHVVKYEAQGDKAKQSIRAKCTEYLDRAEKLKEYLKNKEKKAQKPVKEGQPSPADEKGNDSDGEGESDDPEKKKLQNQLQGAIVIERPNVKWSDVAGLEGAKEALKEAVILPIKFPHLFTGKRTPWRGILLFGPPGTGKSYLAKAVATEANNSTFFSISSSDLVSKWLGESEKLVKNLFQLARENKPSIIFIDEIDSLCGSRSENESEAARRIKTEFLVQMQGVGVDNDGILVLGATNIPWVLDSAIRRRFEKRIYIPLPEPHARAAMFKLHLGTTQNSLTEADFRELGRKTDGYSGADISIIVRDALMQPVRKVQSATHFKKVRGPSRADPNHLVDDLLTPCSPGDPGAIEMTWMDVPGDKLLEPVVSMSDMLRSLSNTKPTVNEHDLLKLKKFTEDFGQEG
The assay is described as follows: SPR. The format is binding.

In assay [4] the target is T3, peroxiredoxin 3 (PRDX3) (Homo sapiens, UniProt P30048).
T3 sequence (P30048 62-256): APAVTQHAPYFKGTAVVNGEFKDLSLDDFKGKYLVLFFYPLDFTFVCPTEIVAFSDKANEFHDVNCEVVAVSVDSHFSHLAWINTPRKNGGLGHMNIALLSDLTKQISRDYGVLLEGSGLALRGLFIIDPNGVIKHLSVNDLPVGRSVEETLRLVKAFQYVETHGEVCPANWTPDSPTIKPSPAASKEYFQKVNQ
The assay is described as follows: SPR. The format is binding.

Chain of EIF2AK2 (P19525 2-551): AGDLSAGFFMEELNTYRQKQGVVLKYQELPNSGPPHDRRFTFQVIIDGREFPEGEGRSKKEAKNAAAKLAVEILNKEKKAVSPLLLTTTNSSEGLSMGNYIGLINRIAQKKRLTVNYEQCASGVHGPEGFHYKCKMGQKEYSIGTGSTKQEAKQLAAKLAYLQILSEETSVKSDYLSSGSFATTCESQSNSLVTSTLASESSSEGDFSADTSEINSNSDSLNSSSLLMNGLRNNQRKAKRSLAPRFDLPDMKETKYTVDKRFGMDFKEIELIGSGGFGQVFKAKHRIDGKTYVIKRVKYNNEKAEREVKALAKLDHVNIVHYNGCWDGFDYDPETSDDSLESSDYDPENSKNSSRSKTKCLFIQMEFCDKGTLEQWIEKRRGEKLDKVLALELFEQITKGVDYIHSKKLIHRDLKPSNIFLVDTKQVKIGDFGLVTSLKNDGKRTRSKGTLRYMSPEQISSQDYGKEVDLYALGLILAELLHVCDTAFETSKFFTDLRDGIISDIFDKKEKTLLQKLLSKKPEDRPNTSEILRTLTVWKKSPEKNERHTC

Turning to `O=C1Nc2ccc3ncsc3c2/C1=C/c1c[nH]cn1` [C16], the IC50 (commonly the concentration that inhibits the measured activity by half) in assay [1] was 1.01 µM.
For `COc1ccc2cc3[n+](cc2c1OC)CCc1cc2c(cc1-3)OCO2` [BBR, berberine], the Kd (commonly the concentration at which binding is half-saturated) in assay [2] worked out at 13.4 µM; in assay [3], 16.8 µM; in assay [4], 23.7 µM.
